Assay results as given in patent US10955415B2, “CD247 as a biomarker for assessing the effect of chemotherapeutic and biological drugs” (YISSUM RESEARCH DEVELOPMENT COMPANY OF THE HEBREW …, priority 2011, dated 2021).
Entries after “also recorded” stand apart in the source; their conditions may differ.

Columns and labels:
[1] = tested on: MDSCs; type: in vivo, mice; conditions: mouse, in vivo
[2] = tested on: S100A8/9; assay: S100A8/9 mRNA and S100A9 immunoblot in purified MDSCs and total spleen; type: in vivo; conditions: purified MDSCs and total splenic population, BCG-inflamed mice; for S100A9 protein levels: immunoblot
Text: FIG. 17A. Purified MDSCs from spleens (n=4); and FIG. 17B. A total spleen population was used to analyze mRNA levels of S100A8/9 (left), and to perform immunoblotting of S100A9 (right) following the course of chronic inflammation alone, chronically inflamed mice treated with 5-FU or CPT11 (n=4), α-Tubulin levels served as a control.
Analyses used either the splenocyte population or peripheral blood as mentioned above. Cells (5×10^7/ml, or 1×10^6/ml) were lysed with Tris-NaCl buffer containing 0.5% Triton X-100 and protease inhibitors for 30 min on ice. Proteins were resolved on 12% SDS-PAGE and subjected to immunoblotting analysis using the following specific antibodies: anti-CD247, antiCD3ε antibodies, anti-S100A9, anti-S100A8, anti-iNOS, anti-ARG1, and anti-αTubulin antibodies. Specific antibodies were detected by incubation with protein A (Amersham), anti-rat or anti-goat antibodies conjugated to horseradish peroxidase (Jackson Immunoresearch), followed by enhanced chemiluminescence and exposure to Kodak X-ray films.
Total RNA was recovered from splenocytes or isolated MDSCs using Tri-Reagent (Sigma) and was subjected to reverse transcription with m-MLV-RT (Invitrogen) and random primers (IDT). Quantitative mRNA expression was analyzed by real-time PCR (ABI 7900), with SYBR green (Invitrogen). RT-PCR primers were designed to recognize an exon-exon boundary in all transcripts.

[3] = tested on: cleaved caspase-3; assay: Cleaved caspase-3 in splenic MDSCs (flow cytometry); type: in vivo; conditions: BCG-inflamed mice
Text: FIG. 17F. […] Means and SEM are shown. *, P<0.05; **, P<0.01. Abbreviations: Inf. (inflamed), Tot. sp. (total spleen), sp (spleen), g. (gated), Norm. (normal).

[4] = tested on: CD247 (ζ-chain); assay: CD247 expression in spleen and PBLs, CRC mouse model; type: in vivo; conditions: CRC (AOM/DSS) mice, vs untreated CRC-bearing mice
Text: Means and SEM are shown. *, P<0.05; **, P<0.01. […] (normal).

[5] = tested on: MDSCs; assay: NO and ROS production gated on MDSCs, CRC mouse model; type: in vivo; conditions: CRC-bearing mice, splenocytes
Description: Splenocytes isolated from normal mice, CRC mice or CRC mice treated with 5-FU alone or in a combination with CPT11 (n=5) were analyzed for nitric oxide (NO, FIG. 23A) and reactive oxygen species (ROS, FIG. 23B) production, both by flow cytometry analysis gaiting on the MDSCs (Gr1+CD11b+) population. Histograms represent production levels, as shown by mean fluorescence intensity (MFI). Data from three independent experiments (n=3) are presented. Statistical analyses using t test indicate significant differences at 95%. Means and SEM are shown. *, P<0.05; **, P<0.01. Abbreviations: Norm. (normal), g. (gated).

[6] = tested on: MDSCs; assay: MDSC infiltration in colon lamina propria and epithel, CRC mouse model; type: in vivo; conditions: CRC-bearing mice, tumor tissue
[7] = tested on: MDSCs; assay: NO production of MDSCs in colon epithel and lamina propria, CRC mouse model; type: in vivo; conditions: CRC-bearing mice, gated on MDSCs

| SMILES | NO production by MDSCs [1] | ROS production by MDSCs [1] | reduction of hROS of MDSCs [1] | mRNA levels of S100A8/9 [2] | S100A9 protein levels [2] | cleaved caspase-3 expression in spleen-derived MDSCs [3] | CD247 expression levels in spleen and blood [4] | NO and ROS production (MDSC suppressive activity) [5] | MDSCs infiltration in lamina propria and colon epithelial tissue [6] | NO production in epithel and lamina propria [7] |
| --- | --- | --- | --- | --- | --- | --- | --- | --- | --- | --- |
| O=c1[nH]cc(F)c(=O)[nH]1 [5-FU, 5-Fluorouracil] | decreased | decreased | better results | significant decrease | decreased amounts | significant increase | significantly recovered | decreased the suppressive activity | significantly reduced | reduced |
| CCc1c2c(nc3ccc(OC(=O)N4CCC(N5CCCCC5)CC4)cc13)-c1cc3c(c(=O)n1C2)COC(=O)[C@]3(O)CC [Irinotecan] | significant elevation; also recorded: did not result in any further changes | significant elevation; also recorded: significantly increased | – | no significant changes | remained high | – | low as in the case of CRC-bearing, non-treated mice | – | significantly increased | – |
